System: human prostate
Experiment: Contractile responses of human prostate
Format: cell-based
Settings: isolated human prostatic tissue strips; antagonism of (−)-noradrenaline contractions; single antagonist concentration incubated 2 hours
Method: Contractile Responses of Human Prostate
Prostatic tissue was cut into longitudinal strips (approximately 3×2×10 mm) and suspended in organ baths under a resting tension of 1 g in Krebs Ringer bicarbonate of the following composition (mM): NaCl (119), KCl (4.7), CaCl2 (2.5), KH2PO4 (1.2), MgSO4 (1.2), NaHCO3 (25), glucose (11), and gassed with 95% O2/5% CO2. The solution also contained 10 […]. Tissues were exposed to a sensitising dose of (−)-noradrenaline ([…]) and washed over a 45 minute period. Isometric contractions were obtained in response to cumulative additions of (−)-noradrenaline to obtain control curves in all tissues. A further curve was then generated in the presence or absence of antagonist (incubated for 2 hours). Antagonist affinity estimates (pA2) were determined using a single concentration of competing antagonist, pA2=−log [A]/(DR−1) where the dose ratio (DR), relative to corresponding controls, was produced by a single concentration of antagonist [A], assuming competitive antagonism and Schild regression close to unity.

Structure (SMILES): COc1cc2nc(N3CCCN(C(=O)N4CCOCC4)CC3)cc(N)c2c(-c2ncco2)c1OC [Example 28, 4-Amino-6,7-dimethoxy-2-[4-(4-morpholinecarbonyl)-1,4-diazepan-1-yl]-5-(oxazol-2-yl)quinoline]
- pA2 value: 9.2

— patent publication US6521629B2, “Quinoline and quinazoline compounds useful in therapy” (Pfizer Inc., priority 1997, dated 2003)
